Where a name gives a salt, the structure may show the parent alone. Read-outs that look alike come from different tables or passages of the source.
What was measured:
[1] = system: tongue squamous cell carcinoma CAL27; test: In vitro proliferation assay (sulforhodamine B), CAL27; assay type: cell-based, human
Procedure: (§1) The possible antitumoral activity of these new compounds was analyzed by the effects exerted on the proliferation of five human tumor cell lines of different histotype. Therefore, the modifications on cell viability and replication determined by the treatment with each single compound were evaluated. The following human tumor cell lines triple-negative breast cancer MDA-MB231, colon carcinoma HT-29, glioblastoma multiforme U-87 MG, tongue squamous cell carcinoma CAL27 and pharynx squamous cell carcinoma FaDu were treated for 24 and 48 h with 10, 20, 30, 40, 50 and 60 μM of each single compound.
(§2) Anti-proliferative activities are reported in Table 2 (compounds 1b–g, 3) and Table 3 (compounds 2a–f) in comparison with reference compound 1a.
(§3) The following human tumor cell lines were utilized in the present study: glioblastoma multiforme U-87 MG, triple-negative breast cancer MDA-MB231, colon carcinoma HT-29, tongue squamous cell carcinoma CAL27 and pharynx squamous cell carcinoma FaDu, all of which obtained from the American Type Culture Collection (Manassas, VA, USA). In addition, human dermal fibroblast primary cultures (HF) used as control of non-transformed cells, had been previously established in our laboratory.
(§4) The cells were grown at 37 °C and 5% CO2 in Dulbecco’s modified Eagle’s medium or RPMI 1640 medium supplemented with 10% fetal bovine serum, 2 mM glutamine and 50 U/mL penicillin-streptomycin (Sigma-Aldrich).
(§5) All compounds were solubilized in dimethylsulfoxide (DMSO) (Sigma) for a 10 mM stock solution and utilized to final concentrations from 100 nM to 60 μM for 24 and 48 h. Control cells were treated with equivalent amounts of DMSO in every experiment.
(§6) To determine cytotoxicity, a sulforhodamine B colorimetric assay was performed. Cells (1.5 × 10^4) were plated in a 96-well plate, grown for 24 h and then treated with different concentrations of each compound for 24 and 48 h at 37 °C. Cells were then fixed with 50% trichloroacetic acid for 1 h at 4 °C and stained for 30 min at room temperature with 0.4% sulforhodamine B in 1% acetic acid. Excess dye was removed by washing four times with 1% acetic acid. Protein-bound dye was dissolved in 10 mM Tris (pH 10), and optical density was determined at 510 nm using a microplate reader. Each experiment was performed three times and the media was calculated.

[2] = system: human cancer cells of different histotypes; set-up: method as in PMID 30900116; conditions: cited from earlier work
[3] = system: triple-negative breast cancer MDA-MB231; test: In vitro proliferation assay (sulforhodamine B), MDA-MB231; assay type: cell-based, human
Procedure: as §1, §2, §3, §4, §5, §6

colon carcinoma HT-29 = test: In vitro proliferation assay (sulforhodamine B), HT-29; assay type: cell-based, human
Procedure: as §1, §2, §3, §4, §5, §6

[4] = system: pharynx squamous cell carcinoma FaDu; test: In vitro proliferation assay (sulforhodamine B), FaDu; assay type: cell-based, human
Procedure: as §1, §2, §3, §4, §5, §6

[5] = Cytotoxicity on normal cells (sulforhodamine B), HF; assay type: cell-based, human; conditions: human, human dermal fibroblast primary cultures (HF), 48 h
Procedure: as §3, §4, §5, §6

[6] = system: glioblastoma multiforme U-87 MG; test: In vitro proliferation assay (sulforhodamine B), U-87 MG; assay type: cell-based, human
Procedure: as §1, §2, §3, §4, §5, §6

[7] = system: five human tumor cell lines (HT-29, U-87 MG, MDA-MB231, CAL27, FaDu); test: In vitro proliferation assay, summary over all tested tumor cell lines; assay type: cell-based; conditions: for EC50: Homo sapiens, all tested tumor cell lines, read-out: EC50s over the tested cell lines
Procedure: as §1, §2, §3, §4, §5, §6

[8] = system: human dermal fibroblasts (HF); test: Cytotoxicity on normal cells (sulforhodamine B), HF; assay type: cell-based
Procedure: as §3, §4, §5, §6

[9] = Homo sapiens, CAL-27, 48 h, 48 h
[10] = Homo sapiens, MDA-MB-231, 48 h, 48 h
[11] = Homo sapiens, HT-29, 48 h, 48 h
[12] = Homo sapiens, CAL-27, 24 h, 24 h
[13] = Homo sapiens, HT-29, 24 h, 24 h

Row | Structure (SMILES) | EC50 [1, 9] [µM] | EC50 [3, 10] [µM] | EC50 (colon carcinoma HT-29; [11]) [µM] | EC50 ([4]; Homo sapiens, FaDu, 48 h) [µM] | EC50 ([6]; Homo sapiens, U-87 MG, 48 h) [µM] | EC50 ([7]; time not given) [µM] | EC50 (colon carcinoma HT-29; [13]) [µM] | CC50 at 48 h [5] [µM] | other results
1 | CCN(CC)CCCNc1cc(N)nc(Nc2cccc(Cl)c2)n1 [Compound 1a, N^2-(3-Chlorophenyl)-N^4-(3-(diethylamino)propyl)pyrimidine-2,4,6-triamine] | 54.2 | 34.8 | 51.8 | > 60 | > 60 |  |  | > 60 | effect on cell cycle ([2]; 20 μM): upregulation of p21 and p27 and blockage of the cell cycle at G0/G1; induction of apoptosis ([2]; 30–50 μM): induced apoptosis
2 | CCN(CC)CCCNc1cc(N)nc(Nc2cccc(F)c2)n1 [Compound 1b, N^4-(3-(Diethylamino)propyl)-N^2-(3-fluorophenyl)pyrimidine-2,4,6-triamine] | 20 | 35.7 | 29.8 | 43.4 | 47.3 |  |  | 88 | EC50 ([1]; 48 h): 20.3 µM
3 | CCN(CC)CCCNc1cc(N)nc(Nc2cccc(OC)c2)n1 [Compound 1c, N^4-(3-(Diethylamino)propyl)-N^2-(3-methoxyphenyl)pyrimidine-2,4,6-triamine] | 57 | 70.5 | 57 | 71 | > 60 | > 60 |  |  | 
4 | CCN(CC)CCCNc1cc(N)nc(Nc2cccc([N+](=O)[O-])c2)n1 [Compound 1d, N^4-(3-(Diethylamino)propyl)-N^2-(3-nitrophenyl)pyrimidine-2,4,6-triamine] | 35.3 | 49.2 | 40.4 | 46.8 | 54.9 |  |  | 97 | 
5 | CCCN(CCC)c1cc(N)nc(Nc2cccc(Cl)c2)n1 [Compound 1e, N^2-(3-chlorophenyl)-N^4,N^4-dipropylpyrimidine-2,4,6-triamine] |  |  |  |  |  |  |  |  | EC50 ([1]; 48 h): 24.7 µM; EC50 ([3]; 48 h): 34.2 µM; EC50 (colon carcinoma HT-29; 48 h): 28.5 µM; EC50 ([7]; 48 h of treatment): 25 to 45 µM; EC50 ([4]; 48 h): 29.7 µM; CC50 ([8]; 48 h): 68 µM; cytotoxic activity on normal somatic cells, not cytotoxic up to [8]: > 60 µM; EC50 ([6]; 48 h): 45.3 µM
6 | CCCN(CCC)c1cc(N)nc(Nc2cccc(Cl)c2)n1 [Compound 1e-HCl, N^2-(3-chlorophenyl)-N^4,N^4-dipropylpyrimidine-2,4,6-triamine hydrochloride] | 30.3 | 50.2 | 29.3 | 39.8 | 36.6 |  |  | > 60 | 
7 | CCCN(CCC)c1cc(N)nc(Nc2ccc(Cl)cc2F)n1 [Compound 1f, N^2-(4-Chloro-2-fluorophenyl)-N^4,N^4-dipropylpyrimidine-2,4,6-triamine] | 55 | 58 | 50 | 67 | > 60 | 50 to 75 |  | 98 | 
8 | CN1CCN(c2cc(N)nc(Nc3cccc(Cl)c3)n2)CC1 [Compound 1g, N^2-(3-Chlorophenyl)-6-(4-methylpiperazin-1-yl)pyrimidine-2,4-diamine] | 60 | 55 | 60 | 87 | > 60 |  |  |  | 
9 | CCN(CC)CCCNc1cc(N)nc(N(Cc2ccc(F)cc2)c2cccc(Cl)c2)n1 [Compound 2a, N^2-(3-chlorophenyl)-N^4-(3-(diethylamino)propyl)-N^2-(4-fluorobenzyl)pyrimidine-2,4,6-triamine] | 4.3 | 7.9 | 5.4 | 8.5 | 7.5 | 4 to 8 | 10.2 | 50.2 | EC50 [1, 12]: 9.7 µM; EC50 ([3]; Homo sapiens, MDA-MB-231, 24 h, 24 h): 18 µM; negative regulation of growth (cell viability, Figure 3) ([7]; 1, 10, 20, 50 μM, 24 h and 48 h, each tumor cell line): significant at various concentrations and times; EC50 ([7]; 24 h of treatment): 10 to 26 µM; EC50 ([7]; 48 h of treatment): 5 to 8 µM; fold more active than 1a ([7]; vs hit 1a (RDS 3442), all tested cell lines, 48 h of treatment): 4–13 fold; EC50 ([4]; Homo sapiens, FaDu, 24 h): 26.2 µM; negative regulation of growth (cell viability, Figure 3) ([8]; 1, 10, 20, 50 μM, 24 h and 48 h, normal fibroblasts): only weakly significant and exclusively at high concentrations at 48 h; EC50 ([6]; Homo sapiens, U-87 MG, 24 h): 22 µM

The next lines start with results.

Row | EC50 [1, 9] [µM] | EC50 [3, 10] [µM] | EC50 (colon carcinoma HT-29; [11]) [µM] | EC50 ([4]; Homo sapiens, FaDu, 48 h) [µM] | EC50 ([6]; Homo sapiens, U-87 MG, 48 h) [µM] | EC50 ([7]; time not given) [µM] | EC50 (colon carcinoma HT-29; [13]) [µM] | Structure (SMILES) | CC50 at 48 h [5] [µM] | other results
10 | 5.1 | 7.3 | 10.4 | 23.8 | 17.7 |  | 20.2 | CCN(CC)CCCNc1cc(N)nc(N(Cc2ccc(F)cc2)c2cccc(F)c2)n1 [Compound 2b, N^4-(3-(diethylamino)propyl)-N^2-(4-fluorobenzyl)-N^2-(3-fluorophenyl)pyrimidine-2,4,6-triamine] | 54.7 | 
11 | 14.9 | 27.2 | 18.3 | 18 | 19.8 | 15 to 35 | 34.7 | CCN(CC)CCCNc1cc(N)nc(N(Cc2ccc(F)cc2)c2cccc(OC)c2)n1 [Compound 2c, N^4-(3-(diethylamino)propyl)-N^2-(4-fluorobenzyl)-N^2-(3-methoxyphenyl)-pyrimidine-2,4,6-triamine] | 50.3 | EC50 ([4]; 48 h): 18.2 µM; folds more active than 3 ([4]; FaDu, 48 h of treatment, 2c vs 3): about 2.5 folds
12 | 10.3 | 17.3 | 12.7 | 20.5 | 30.1 |  | 25.2 | CCN(CC)CCCNc1cc(N)nc(N(Cc2ccc(F)cc2)c2cccc([N+](=O)[O-])c2)n1 [Compound 2d, N^4-(3-(Diethylamino)propyl)-N^2-(4-fluorobenzyl)-N^2-(3-nitrophenyl)pyrimidine-2,4,6-triamine] | 55.2 | 
13 | 59.3 | > 60 | > 60 | > 60 | > 60 | > 60 |  | CCCN(CCC)c1cc(N)nc(N(Cc2ccc(F)cc2)c2cccc(Cl)c2)n1 [Compound 2e, N^2-(3-Chlorophenyl)-N^2-(4-fluorobenzyl)-N^4,N^4-dipropylpyrimidine-2,4,6-triamine] |  | 
14 | 45 | 58.3 | 30 | > 60 | > 60 |  |  | CCCN(CCC)c1cc(N)nc(N(Cc2ccc(F)cc2)c2ccc(Cl)cc2F)n1 [Compound 2f, N^2-(4-Chloro-2-fluorophenyl)-N^2-(4-fluorobenzyl)-N^4,N^4-dipropylpyrimidine-2,4,6-triamine] |  | EC50 ([1]; 48 h): 45.4 µM
15 | 10.4 | 10.2 | 11.7 |  | 22.9 |  | 28.2 | COc1cccc(Nc2cc(N)nc(Nc3cccc(OC)c3)n2)c1 [Compound 3, N^2,N^4-bis(3-Methoxyphenyl)pyrimidine-2,4,6-triamine] | 65 | EC50 [1, 12]: 20.3 µM; EC50 ([7]; 48 h of treatment): ≤ 20 µM; EC50 ([4]; Homo sapiens, FaDu, 24 h): 42.1 µM; cytotoxic activity on normal somatic cells, not cytotoxic up to [8]: > 60 µM

— article PMC7867324, “Design, Synthesis and Biological Evaluation of New Pyrimidine Derivatives as Anticancer Agents” (Molecules, 2021)
